# From paper PMC8102066 (eLife, 2021)
# Where “and” joins values, the source holds several entries; their conditions need not be identical. Equal values may be shown once.
# Tests used:
# mGluR3-I788A [1] = target: T1, mGluR3-I788A (Rattus norvegicus, UniProt P31422, I788A); assay: Inter-TMD FRET sensor (HaloTag in ICL2), live cells; type: cell-based; set-up: expressed in transfected cells; host or cells: HEK 293 T; FRET response amplitude: scale not given here; conditions: for FRET response amplitude: inter-TMD FRET
# From the text: Next, we asked how perturbing the TM6 interface would alter the conformational dynamics detected by our TMD FRET sensors.
# mGluR2 [2] = target: mGluR2 (Rattus norvegicus, UniProt P31421); assay: GIRK channel whole cell patch clamp in HEK 293 T cells
# mGluR3-C127A = mGluR3-C127A (Rattus norvegicus, UniProt P31422, C127A); assay: SiMPull subunit counting in the presence of ligands
# mGluR3-F690A = mGluR3-F690A (Rattus norvegicus, UniProt P31422, F690A); assay: Calcium imaging in HEK 293 T cells; conditions: for Calcium response amplitude: mGluR3-F681A
# mGluR3-I788A [3] = target: T1, mGluR3-I788A; assay: Calcium imaging in HEK 293 T cells; type: cell-based; set-up: we performed calcium imaging experiments with mutations in the full-length mGluR2 background; expressed in transfected cells; host or cells: HEK 293 T; Calcium response amplitude: scale not given here; conditions: for Calcium response amplitude: mGluR3-I788A
# Experimental: Approximately 30 ROIs were analyzed per movie.
# mGluR3 = mGluR3 (Rattus norvegicus, UniProt P31422, INS669ASEIGTGFPFDPHYVEVLGERMHYVDVGPRDGTPVLFLHGNPTSSYVWRNIIPHVAPTHRCIAPDLIGMGKSDKPDLGYFFDDHVRFMDAFIEALGLEEVVLVIHDWGSALGFHWAKRNPERVKGIAFMEFIRPIPTWDEWPEFARETFQAFRTTDVGRKLIIDQNVFIEGTLPMGVVRPLTEVEMDHYREPFLNPVDREPLWRFPNELPIAGEPANIVALVEEYMDWLHQSPVPKLLFWGTPGVLIPPAEAARLAKSLPNCKAVDIGPGLNLLQEDNPDLIGSEIARWLSTLEISGLE); assay: Inter-TMD FRET sensor (HaloTag in ICL2), live cells; conditions: for FRET response amplitude: mGluR3, inter-TMD FRET;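 as to all read-outs here: receptor HaloTag labeled with JF549 donor and JF646 acceptor (1:3), FRET taken as acceptor over summed donor plus acceptor fluorescence intensity, imaged at room temperature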
# mGluR2-3xTM4 = mGluR2-3xTM4 (Rattus norvegicus, UniProt P31421, A677S/A681F/A685G); assay: Calcium imaging (G protein chimera, GCaMP6f) in HEK 293 T cells; conditions: normalized to 1 mM glutamate, replicates
# mGluR3-C127A-I788A = mGluR3-C127A-I788A (Rattus norvegicus, UniProt P31422, C127A/I788A); assay: SiMPull subunit counting in the presence of ligands
# mGluR2 [4] = target: mGluR2 (Rattus norvegicus, UniProt P31421, INS660ASEIGTGFPFDPHYVEVLGERMHYVDVGPRDGTPVLFLHGNPTSSYVWRNIIPHVAPTHRCIAPDLIGMGKSDKPDLGYFFDDHVRFMDAFIEALGLEEVVLVIHDWGSALGFHWAKRNPERVKGIAFMEFIRPIPTWDEWPEFARETFQAFRTTDVGRKLIIDQNVFIEGTLPMGVVRPLTEVEMDHYREPFLNPVDREPLWRFPNELPIAGEPANIVALVEEYMDWLHQSPVPKLLFWGTPGVLIPPAEAARLAKSLPNCKAVDIGPGLNLLQEDNPDLIGSEIARWLSTLEISGLE); assay: Inter-TMD FRET sensor (HaloTag in ICL2), live cells; conditions: mGluR2, inter-TMD FRET
# [5] = read-out: Glutamate EC50, inter-TMD FRET, normalized to saturating (1 mM) glutamate, unit inferred
# Chain of mGluR3-C127A (P31422 23-879 C127A): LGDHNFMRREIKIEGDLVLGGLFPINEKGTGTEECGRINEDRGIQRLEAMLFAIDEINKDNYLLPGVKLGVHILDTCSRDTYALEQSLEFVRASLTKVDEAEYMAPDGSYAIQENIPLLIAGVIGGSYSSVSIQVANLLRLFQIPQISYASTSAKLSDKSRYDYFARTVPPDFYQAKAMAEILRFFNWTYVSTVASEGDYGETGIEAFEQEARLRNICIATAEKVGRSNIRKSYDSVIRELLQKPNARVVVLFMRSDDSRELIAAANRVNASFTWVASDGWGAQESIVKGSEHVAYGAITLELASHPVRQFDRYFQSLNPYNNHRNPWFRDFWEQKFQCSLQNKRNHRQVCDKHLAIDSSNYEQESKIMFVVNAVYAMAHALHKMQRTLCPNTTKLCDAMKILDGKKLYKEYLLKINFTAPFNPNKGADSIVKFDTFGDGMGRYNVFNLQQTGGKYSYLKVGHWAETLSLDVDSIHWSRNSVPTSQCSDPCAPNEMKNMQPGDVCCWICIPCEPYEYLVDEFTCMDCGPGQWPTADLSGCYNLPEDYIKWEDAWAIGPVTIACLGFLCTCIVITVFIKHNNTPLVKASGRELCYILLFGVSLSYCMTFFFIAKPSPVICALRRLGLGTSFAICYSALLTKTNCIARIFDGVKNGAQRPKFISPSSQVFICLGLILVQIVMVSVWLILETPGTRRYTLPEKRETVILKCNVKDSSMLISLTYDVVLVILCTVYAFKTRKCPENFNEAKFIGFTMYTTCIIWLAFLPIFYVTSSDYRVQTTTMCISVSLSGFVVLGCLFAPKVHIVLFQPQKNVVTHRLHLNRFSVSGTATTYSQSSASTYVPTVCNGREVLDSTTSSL
# T1 sequence (P31422 23-879 I788A): as the sequence (P31422 23-879 C127A) above, with A105C, I766A counted along it
# Chain of mGluR2-3xTM4 (P31421 19-872 A677S/A681F/A685G): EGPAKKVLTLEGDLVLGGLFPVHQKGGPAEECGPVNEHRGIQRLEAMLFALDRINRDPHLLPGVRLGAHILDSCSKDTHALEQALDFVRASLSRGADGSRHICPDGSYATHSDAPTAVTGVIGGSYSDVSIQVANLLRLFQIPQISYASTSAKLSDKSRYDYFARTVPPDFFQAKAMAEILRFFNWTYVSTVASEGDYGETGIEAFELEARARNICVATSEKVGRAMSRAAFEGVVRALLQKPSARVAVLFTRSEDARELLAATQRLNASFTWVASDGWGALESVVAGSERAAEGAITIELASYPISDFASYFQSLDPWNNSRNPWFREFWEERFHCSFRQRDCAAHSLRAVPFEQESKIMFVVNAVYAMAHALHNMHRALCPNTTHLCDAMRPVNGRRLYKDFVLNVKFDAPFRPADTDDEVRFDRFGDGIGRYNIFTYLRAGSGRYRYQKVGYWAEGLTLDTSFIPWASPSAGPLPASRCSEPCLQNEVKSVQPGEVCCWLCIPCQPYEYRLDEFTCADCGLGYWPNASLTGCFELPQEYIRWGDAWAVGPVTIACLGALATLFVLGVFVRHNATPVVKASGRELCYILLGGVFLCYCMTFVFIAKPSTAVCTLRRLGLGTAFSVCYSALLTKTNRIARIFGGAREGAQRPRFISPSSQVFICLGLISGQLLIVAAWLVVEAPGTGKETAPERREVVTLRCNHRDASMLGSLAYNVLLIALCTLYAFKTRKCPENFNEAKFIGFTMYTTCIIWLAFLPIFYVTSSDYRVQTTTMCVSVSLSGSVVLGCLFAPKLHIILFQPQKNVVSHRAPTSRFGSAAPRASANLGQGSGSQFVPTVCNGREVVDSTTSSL
# Chain of UniProt P31421 (P31421 with tags, fused parts or gaps with the stated changes): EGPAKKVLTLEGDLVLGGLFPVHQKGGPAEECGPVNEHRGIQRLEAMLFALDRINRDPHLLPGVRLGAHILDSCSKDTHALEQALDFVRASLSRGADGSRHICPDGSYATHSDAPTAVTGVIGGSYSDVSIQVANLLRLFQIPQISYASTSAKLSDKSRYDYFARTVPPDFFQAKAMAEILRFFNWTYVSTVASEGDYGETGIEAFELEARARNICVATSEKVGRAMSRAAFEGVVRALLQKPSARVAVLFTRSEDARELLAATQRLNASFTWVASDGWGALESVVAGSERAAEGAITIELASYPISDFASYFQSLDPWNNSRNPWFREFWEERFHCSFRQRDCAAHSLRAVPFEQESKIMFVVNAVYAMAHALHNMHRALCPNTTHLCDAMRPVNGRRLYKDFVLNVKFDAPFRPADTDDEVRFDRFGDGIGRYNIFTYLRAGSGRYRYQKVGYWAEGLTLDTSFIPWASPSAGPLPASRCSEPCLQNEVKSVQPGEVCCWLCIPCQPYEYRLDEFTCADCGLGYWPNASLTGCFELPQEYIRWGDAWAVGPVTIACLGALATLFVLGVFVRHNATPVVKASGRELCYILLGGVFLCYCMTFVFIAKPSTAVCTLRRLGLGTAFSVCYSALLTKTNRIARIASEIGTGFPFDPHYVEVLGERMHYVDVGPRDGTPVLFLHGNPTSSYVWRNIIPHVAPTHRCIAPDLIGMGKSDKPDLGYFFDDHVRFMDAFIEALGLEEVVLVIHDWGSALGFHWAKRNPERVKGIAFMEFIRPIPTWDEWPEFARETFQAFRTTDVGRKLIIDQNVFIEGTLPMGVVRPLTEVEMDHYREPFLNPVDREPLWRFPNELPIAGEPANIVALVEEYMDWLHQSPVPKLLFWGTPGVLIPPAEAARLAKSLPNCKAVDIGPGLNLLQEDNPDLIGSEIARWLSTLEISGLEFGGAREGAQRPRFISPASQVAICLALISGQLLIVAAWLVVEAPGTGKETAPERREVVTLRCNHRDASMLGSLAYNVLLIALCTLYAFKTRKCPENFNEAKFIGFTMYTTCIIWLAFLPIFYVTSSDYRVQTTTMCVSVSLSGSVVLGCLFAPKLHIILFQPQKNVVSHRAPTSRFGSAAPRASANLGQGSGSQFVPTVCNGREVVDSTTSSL
# Chain of mGluR3 (P31422 with tags, fused parts or gaps with the stated changes): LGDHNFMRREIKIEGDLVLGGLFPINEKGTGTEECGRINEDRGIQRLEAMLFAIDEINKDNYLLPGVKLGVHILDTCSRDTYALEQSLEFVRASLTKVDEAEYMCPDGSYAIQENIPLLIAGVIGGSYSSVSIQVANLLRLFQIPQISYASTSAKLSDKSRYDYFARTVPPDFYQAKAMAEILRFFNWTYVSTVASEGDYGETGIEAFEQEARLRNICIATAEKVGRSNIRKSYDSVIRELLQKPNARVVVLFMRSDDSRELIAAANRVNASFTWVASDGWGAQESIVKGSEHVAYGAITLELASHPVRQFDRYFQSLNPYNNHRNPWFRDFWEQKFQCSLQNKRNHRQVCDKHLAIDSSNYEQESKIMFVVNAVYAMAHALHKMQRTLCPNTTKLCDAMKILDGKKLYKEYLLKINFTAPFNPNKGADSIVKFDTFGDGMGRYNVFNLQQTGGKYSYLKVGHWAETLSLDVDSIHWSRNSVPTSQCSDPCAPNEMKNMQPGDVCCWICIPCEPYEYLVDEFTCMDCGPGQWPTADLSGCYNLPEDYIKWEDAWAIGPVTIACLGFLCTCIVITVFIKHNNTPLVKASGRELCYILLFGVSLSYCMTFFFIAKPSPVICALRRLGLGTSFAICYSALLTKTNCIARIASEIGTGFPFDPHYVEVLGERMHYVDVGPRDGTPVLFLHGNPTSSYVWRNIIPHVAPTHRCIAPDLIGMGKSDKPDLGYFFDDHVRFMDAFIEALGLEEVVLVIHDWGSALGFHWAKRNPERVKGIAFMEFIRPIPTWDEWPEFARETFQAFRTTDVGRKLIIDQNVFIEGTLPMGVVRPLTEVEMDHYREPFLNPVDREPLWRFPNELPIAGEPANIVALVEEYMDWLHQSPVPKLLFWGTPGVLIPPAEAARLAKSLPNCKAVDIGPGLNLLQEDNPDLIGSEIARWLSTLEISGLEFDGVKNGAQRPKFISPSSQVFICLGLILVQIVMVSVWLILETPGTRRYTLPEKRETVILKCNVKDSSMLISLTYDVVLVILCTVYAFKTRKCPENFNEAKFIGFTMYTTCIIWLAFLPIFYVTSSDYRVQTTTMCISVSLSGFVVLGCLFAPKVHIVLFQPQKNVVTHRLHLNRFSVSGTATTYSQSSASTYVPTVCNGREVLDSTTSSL
# Chain of mGluR2 (Rattus norvegicus, UniProt P31421) (P31421 19-872): as the sequence (P31421 19-872 A677S/A681F/A685G) above, with S659A, F663A, G667A counted along it
# Chain of mGluR3-F690A (P31422 23-879 F690A): as the sequence (P31422 23-879 C127A) above, with A105C, F668A counted along it
# Chain of mGluR3-C127A-I788A (P31422 23-879 C127A/I788A): as the sequence (P31422 23-879 C127A) above, with I766A counted along it
smiles,measurement,setting,value
N[C@@H](CCC(=O)O)C(=O)O [glutamate],FRET response amplitude,mGluR3-I788A [1]; Glutamate 10 nM,0.00
same,FRET response amplitude,mGluR3-I788A [1]; Glutamate 1 uM,0.60 and 0.66 and 0.55
same,FRET response amplitude,mGluR3-I788A [1]; Glutamate 10 uM,0.97 and 1.00 and 0.86
same,FRET response amplitude,mGluR3-I788A [1]; Glutamate 100 uM,1.00
same,FRET response amplitude,mGluR3-I788A [1]; Glutamate 1 mM,1.00
same,EC50,mGluR3-I788A [1]; [5],0.66 ± 0.05 µM
same,GIRK current amplitude,mGluR2 [2]; Glutamate 10 nM,0.000
same,GIRK current amplitude,mGluR2 [2]; Glutamate 10 uM,0.889 and 0.827 and 0.749 and 0.879 and 0.952
same,GIRK current amplitude,mGluR2 [2]; Glutamate 100 uM,0.942 and 1.150 and 0.849 and 0.991
same,GIRK current amplitude,mGluR2 [2]; Glutamate 1 mM,1.000
same,% Dimerization,"mGluR3-C127A; SNAP-mGluR3-C127A in presence of the ligand, single replicates per experiment day",83.23% and 72.86% and 68.26% and 70.70% and 67.67% and 71.63%
same,effect of ligand on dimerization (SiMPull),mGluR3-C127A; saturating concentration,increased dimerization
same,Calcium response amplitude,mGluR3-F690A; Glutamate 10 nM,0.00
same,Calcium response amplitude,mGluR3-F690A; Glutamate 100 nM,0.00
same,Calcium response amplitude,mGluR3-F690A; Glutamate 3 uM,0.33 and 0.27
same,Calcium response amplitude,mGluR3-F690A; Glutamate 10 uM,0.40 and 0.44 and 0.57 and 0.58
same,Calcium response amplitude,mGluR3-F690A; Glutamate 100 uM,1.00 and 0.86
same,Calcium response amplitude,mGluR3-F690A; Glutamate 1 mM,1.00
same,EC50,"mGluR3-F690A; read-out: Glutamate EC50, calcium imaging, normalized to saturating (1 mM) glutamate",9.59 ± 0.06 µM
same,Calcium response amplitude,mGluR3-I788A [3]; Glutamate 10 nM,0.00
same,Calcium response amplitude,mGluR3-I788A [3]; Glutamate 1 uM,0.60 and 0.66 and 0.55
same,Calcium response amplitude,mGluR3-I788A [3]; Glutamate 10 uM,0.97 and 1.00 and 0.86
same,Calcium response amplitude,mGluR3-I788A [3]; Glutamate 100 uM,1.00
same,Calcium response amplitude,mGluR3-I788A [3]; Glutamate 1 mM,1.00
same,EC50,"mGluR3-I788A [3]; read-out: Glutamate EC50, calcium imaging, normalized to saturating (1 mM) glutamate, unit inferred",10.43 ± 0.1 µM
same,FRET response amplitude,mGluR3; Glutamate 1 nM,0.00
same,FRET response amplitude,mGluR3; Glutamate 1 uM,0.66 and 0.83 and 0.95 and 0.97 and 0.93 and 0.79 and 0.73
same,FRET response amplitude,mGluR3; Glutamate 10 uM,0.80 and 0.95 and 0.97 and 1.05 and 0.98 and 0.87
same,FRET response amplitude,mGluR3; Glutamate 100 uM,0.99 and 0.97 and 0.96 and 1.00
same,FRET response amplitude,mGluR3; Glutamate 1 mM,1.00
same,EC50,mGluR3; [5],0.23 ± 0.08 µM
same,Calcium response amplitude,mGluR2-3xTM4; Glutamate 1 nM,0.00
same,Calcium response amplitude,mGluR2-3xTM4; Glutamate 10 nM,0.00
same,Calcium response amplitude,mGluR2-3xTM4; Glutamate 100 nM,0.26 and 0.30 and 0.14
same,Calcium response amplitude,mGluR2-3xTM4; Glutamate 300 nM,0.49 and 0.41
same,Calcium response amplitude,mGluR2-3xTM4; Glutamate 1 uM,0.54 and 0.70 and 0.62 and 0.63 and 0.75
same,Calcium response amplitude,mGluR2-3xTM4; Glutamate 3 uM,0.98 and 0.89 and 0.90 and 0.80 and 0.78 and 1.01
same,Calcium response amplitude,mGluR2-3xTM4; Glutamate 10 uM,0.95 and 1.00 and 0.99
same,Calcium response amplitude,mGluR2-3xTM4; Glutamate 100 uM,0.96 and 0.99 and 1.00 (2×)
same,Calcium response amplitude,mGluR2-3xTM4; Glutamate 1 mM,1.00
same,% Dimerization,"mGluR3-C127A-I788A; SNAP-mGluR3-C127A-I788A in presence of the ligand, single replicates per experiment day",41.49% and 28.78% and 34.64% and 33.27% and 41.72% and 37.93%
same,effect of ligand on dimerization (SiMPull),mGluR3-C127A-I788A; saturating concentration,no difference
same,FRET response amplitude,mGluR2 [4]; Glutamate 10 nM,0.00
same,FRET response amplitude,mGluR2 [4]; Glutamate 100 nM,0.00
same,FRET response amplitude,mGluR2 [4]; Glutamate 100 uM,0.97 and 0.96 and 0.95 and 0.92 and 1.04 and 0.99 and 1.01
same,FRET response amplitude,mGluR2 [4]; Glutamate 1 mM,1.00
